According to patent US12410141B2, “Anti-cancer spirocyclic-guanidine compounds and uses thereof” (The Johns Hopkins University, priority 2020, dated 2025):

Columns and labels:
Neat solution stability = type: physicochemical; conditions: 10 μM, 37° C.
Protocol: Human and mouse liver microsomes and NADPH regenerating system solutions were purchased from Corning Life Sciences (Tewsbury, MA). Human and mouse K2EDTA was purchased from BioIVT (Westbury, NY). Metabolic studies in liver microsomes (0.125 mg/mL) were conducted in 1× phosphate buffered saline (pH 7.4), NADPH-generating system, and 10 μM of RA475 in a final volume of 250 μl. An incubation mixture with and without NADPH-generating system as well as a neat solution without microsomes and NADPH-generating system were prepared. RA475 was added at the same concentration level into human and mouse EDTA plasma. All reactions were initiated with the addition of RA475. Incubations were performed in glass tubes maintained at 37° C. in a shaker bath. At 0, 30, and 60 minutes, 10 μL aliquots were sampled from the reaction mixture and 0.5 mL of acetonitrile containing internal standard (Up284) was added to each samples. Samples were vortex-mixed and underwent centrifugation for 5 min at 1430×g. A 10 μL aliquot of the supernatant was injected onto the LC-MS instrument for qualitative analysis using a temperature-controlled autosampling device operating at 5° C. Chromatographic analysis was performed using a Waters Acquity™ Ultra Performance LC. […] The mobile phase used for the chromatographic separation was composed of water (mobile phase A) and acetonitrile (mobile phase B) containing 0.1% (v/v) formic acid with a flow rate of 0.3 mL/min. The initial mobile phase composition was 80% mobile phase A and 20% mobile phase B. From 0.5 to 1 min, mobile phase B was increased linearly from 20% to 100%. From 1 to 3 min, mobile phase B was maintained at 100%. From 3.0 to 3.1 min, the gradient decreased to 20% mobile phase B and the conditions were maintained until 4.1 min to re-equilibrate the column for the next injection. The column effluent was monitored using an AB Sciex 5500 triple quadrupole mass spectrometer. The instrument was equipped with an electrospray interface, operated in a positive mode and controlled by the Analyst v1.6 software. For the stability study, the mass spectrometer was programmed to monitor the following MRM transition 408.2→366.1 for RA475 and 366.2→155.8 for UP284 (internal standard). Results were assessed qualitatively comparing the average area ratio of RA475 at 0 hr to area ratio at 30 and 60 minutes for both mouse and human liver microsomes. RA475 was not analyzed for metabolites due to the concentration of RA475 not decreasing.

[1] = test system: high molecular weight polyubiquitinated proteins in SKOV3 cells; assay: Western blot for polyubiquitinated proteins, SKOV3 cells; type: cell-based; conditions: 12 hr, Up284 and RA475 0.5 and 1 μM, RA190 1 μM
Protocol: Cell lysate (10-20 μg total protein) prepared in MPER (Pierce) from each sample was subjected to SDS-PAGE, transferred to PVDF membranes and analyzed by Western blot using antibodies specific for ubiquitin (P4D1, sc-8017, Santa Cruz), or after stripping antibody for actin (#66009, Protein Tech Group), at the dilutions recommended by the manufacturers, and for secondary antibodies either peroxidase-linked anti-mouse IgG or anti-rabbit IgG (GE Healthcare UK Ltd) were utilized at the recommended dilution. The blots were developed using HyGLO chemiluminescent detection reagent (Denville).
Like RA190, RA475 was designed to be an inhibitor of upstream 19S RP proteasome function. […] Treatment with the same doses of Up284 (0.5 and 1 μM) or 1 μM RA190 provided positive controls, and vehicle alone (DMSO) was used as the negative control. At the end of the incubation, attached cells were lysed using MPER buffer according to the manufacturer's protocol. The lysates were subjected to Western blot analysis using antibody to ubiquitin, and then stripped and re-probed with actin antibody to provide a loading control (FIG. 5).
Proteasome inhibitors cause a rapid accumulation of polyUb proteins that is associated with unresolved UPR stress and the induction of apoptosis. Since RA475 is cytotoxic to ovarian cancer cells (Table 1), and induces such a rapid accumulation of polyUb proteins (FIG. 5), it was examined whether RA475 also triggered apoptosis. SKOV3 cells (FIG. 5A) were treated with Up284 (0.5 μM and 1 μM), 1 μM RA190, RA475 (0.5 μM and 1 μM) or vehicle alone (DMSO) and then cultured for 12 hr. OVCAR3 cells (FIG. 5B) were treated with Up284 (0.5 μM), Bortezomib (Bz, 0.25 μM), Ixazomib (Iz, 0.25 μM), RA475 (0.5 μM and 1 μM) or vehicle alone (DMSO). The attached cells were harvested and their lysates were subjected to Western blot analysis, first probed with antibody to ubiquitin and then to actin.

[2] = test system: 4UbFL reporter in leg muscle of CD-1 mice; assay: On-target activity in vivo using 4UbFL; design: species or system mouse; conditions: 40 mg/Kg single i.p. dose
Protocol: A patch was shaved of hair on one leg of CD-1 mice, and 10 μg 4UbFL plasmid in 20 μL of PBS was injected into the quadriceps femoralis muscle followed immediately by injection of the 2 Needle Array to 5 mm depth encompassing the injection site and square wave electroporation (ElectroSquarePorator 833, BTX-2 Needle array 5 mm gap, Harvard apparatus) delivered as eight pulses at 106V for 20 ms with 200 ms intervals. One day post electroporation, mice were anesthetized with isoflurane, injected i.p. with luciferin (0.3 mg in 100 μL water) and optical imaging was performed to determine basal level luciferase expression. Images were acquired for 10 min with a Xenogen IVIS 200 (Caliper, Hopkinton, MA). Equally sized areas were analyzed using Living Image 2.20 software. Mice were imaged weekly during treatment. Mice were randomized into three groups (n=5) and treated i.p. once with Vehicle (25% (w/v) β-Hydroxypropylcyclodextrin in water, Sigma Aldrich), RA475 (40 mg/Kg) and Up284 (40 mg/Kg) and mice were imaged again at 4 hr, 24 hr, 48 hr, 72 hr and 96 hr later.
To assess on-target activity in vivo, 4UbFL plasmid was injected into the muscle of one leg of CD-1 mice followed by electroporation. Luciferin was injected i.p. 24 hr later and the mice were tagged and imaged using an IVIS200 to visualize their basal bioluminescence. The mice were then immediately randomized to 3 groups and treated with vehicle alone (25% β-hydroxypropylcyclodextrin-water solution), RA475 (40 mg/Kg) and Up284 (40 mg/Kg) administered as a single i.p. dose. To examine the on-target activity, the mice were imaged again at 4 hr, 24 hr, 48 hr, 72 hr and 96 hr later.

| SMILES | % Drug Remaining (Neat solution stability; 0 minutes) | % Drug Remaining (Neat solution stability; 30 minutes) | % Drug Remaining (Neat solution stability; 60 minutes) | accumulation of polyUb proteins [1] | increase in bioluminescence at the site of electroporation over baseline ([2]; 4 hr after administration) | increase in bioluminescence at the site of electroporation over baseline ([2]; 24 hr after administration) |
| --- | --- | --- | --- | --- | --- | --- |
| Cl.Cl.N#Cc1ccc(/C=C2/C(=O)/C(=C/c3ccc(C#N)cc3)C23CCN(C(=N)N)CC3)cc1 [RA475] | 100% | 108% | 111% | very significant increase in a dose-dependent manner | 24 fold | 6 fold |
| N#Cc1ccc(/C=C2/C(=O)/C(=C/c3ccc(C#N)cc3)C23CCNCC3)cc1 [Up284, reference compound] | 100% | 86% | 78% | profound accumulation |  | ~3 fold |
